In data set [1] the test system is cell bound fibronectin receptor (VLA4) with fibronectin, SKW3 cells. Kind of data set: Inhibition of SKW3 cell binding to fibronectin (selectivity counter-assay). The class given is cell-based, human. An outline of the steps:
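Plates coated with sICAM-1 (40 μg/mL) or fibronectin (100 μg/mL) for 1 h; SKW3 cells in RPMI/15% FBS activated with PMA (50 μg/mL final) added with compound, 2 h at 37° C. Unbound cells washed off; value is concentration (μM) giving 50% binding inhibition.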

In data set [2] the test system is human MLR, peripheral blood mononuclear cells. The data set can be described thus: Inhibition of the mixed lymphocyte reaction (MLR), tritiated thymidine uptake. The class given is cell-based. Further details: key: Data are reported as “+” or “−” at a given concentration (in μM); Data are reported as “+” or “−” at a given concentration (in μM). As to the method: Assay to Determine Inhibition the Mixed Lymphocyte Reaction
As discussed above, ICAM-1 is necessary for effective cellular interactions during an immune response mediated through LFA-1-dependent cell adhesion. When lymphocytes from two unrelated individuals are cultured together, blast transformation and cell proliferation of the lymphocytes are observed. This response is known as a mixed lymphocyte reaction (MLR) and is analogous to the response of lymphocytes to the 10 addition of antigens or mitogens (Immunology: The Science of Self-Nonself Discrimination; Klein, J., Ed.; John Wiley & Sons: NY, 1982, pp 453-458).
This assay protocol is used to determine the effect of a test compound on the human MLR.
Description of Assay Protocol:
Peripheral blood is obtained from normal, healthy donors by venipuncture. The blood is collected in heparinized tubes and diluted 1:1 at room temperature with Puck's G (GIBCO) balanced salt solution (BSS). The blood mixture (20 mL) is layered over 15 mL of a Ficoll/Hypaque density gradient (Pharmacia, density=1.078, room temperature) and centrifuged at 1000·g for 20 minutes. The interface is then collected and washed 3 times in Puck's G. The cells are counted on a hemocytometer and resuspended in RPMI 1640 culture medium (GIBCO) containing 0.5% of gentamicin, 1 mM L-glutamine (GICO) and 5% heat inactivated (56° C., 30 min) human AB sera (Flow Laboratories) (hereafter referred to as RPMI-culture medium).
Stimulator cells (cells that have been treated with irradiation so that they are unable to proliferate) from a separate donor are cultured with the responder cells at the same concentration. Test compound is added to wells at various concentrations. The total volume per culture is 0.2 mL. Controls include compound vehicle alone (DMSO), responder cells alone, and stimulator cells alone. The culture plates are incubated at 37° C. in a 5% CO2-humidified air atmosphere for 5 days.
The wells are pulsed with 0.5 μCi of tritiated thymidine (^3HT) (New England Nuclear) for the last 18 h of culture. In some cases a two-way MLR can be performed. The protocol is the same except that the second donor's cells are not inactivated by irradiation.
The cells are harvested onto glass fiber filters using an automated multiple sample harvester (Skatron, Norway), and rinsed with water and methanol. The filters are oven dried and counted in Aquasol in a Beckman (LS-3801) liquid scintillation counter.
Data are reported as “+” or “−” at a given concentration (in μM).

Data set [3] has as its system SKW3 cells.
Text: MMT Assay to Determine Cytotoxicity
MTT, (3-(4,5-dimethylthiazol-2-yl)-2,5-diphenyl-2H-tetrazolium bromide), is a yellow substrate that is cleaved by cells with active mitochondria to yield a dark blue/purple formazan product. […] The amount of color is proportional to the number of viable cells. This assay system is used to assess the effect of test compounds on cell viability in vitro.
SKW3 cells, which express LFA-1, are used. Cells used in each assay were adjusted to 1.25·10^6 cells/mL and 100 μL of this stock is dispersed into each well of a 96 well, flat bottom microtiter plate. For each condition in a particular experiment, triplicate wells are set up. Serial dilutions of each test compound or vehicle alone are added to each well. Cells are incubated with compound for 4-24 h at 37° C. before cell viability is assessed. Next, 10 μL of filter sterilized MTT is added to each well. The MTT stock is made in phosphate buffered saline at a concentration of 5 mg/mL. Plates are then incubated for 1 h at 37° C., 5% CO2 atmosphere. Periodically, the plates are examined for formazan crystal development.
At the end of the incubation period, formazan crystals are dissolved by the addition of 100 μL of 0.04 N HCl in iso-propyl alcohol to each well. Each well is thoroughly mixed by repeated pipetting with a multichannel pipetter. The plates are allowed to sit at room temperature for 15-20 minutes and are then read with a spectrophotometer. Absorbance is measured at the test wavelength of 570 nm. Data are reported as the concentration range (in μM) wherein 50% of the cells are no longer viable.

Molecules are shown by their SMILES.

Regarding `C[C@]1(Cc2ccc(Br)cc2)NC(=O)N(c2cc(Cl)cc(Cl)c2)C1=O` [Example 29], the “Assay to Detect SKW3 Cells Binding to FIBRONECTIN IC50” value in data set [1] (values marked c: no inhibition observed up to highest dose) is “No inh^c”. Further, the “Mixed Lymphocyte Reaction MLR +/−” value in data set [2] (at 50 μM) is recorded as “+(50)”. Also, in data set [3], the “Cellular Toxicity Assay MTT LD50” value lay within 63 to 125 µM.

Turning to `CC(=O)N1C(=O)N(c2cc(Cl)cc(Cl)c2)C(=O)[C@@]1(C)Cc1ccc(Br)cc1` [Example 102], the IC50 in data set [1] (Homo sapiens, SKW3, values marked c: no inhibition observed up to highest dose, read-out: Assay to Detect SKW3 Cells Binding to FIBRONECTIN IC50) is above 200 µM. For the same compound, the “Mixed Lymphocyte Reaction MLR +/−” value in data set [2] (at 25 μM) is “+(25)”. For the same compound, in data set [3], the “Cellular Toxicity Assay MTT LD50” value is above 400 µM.
